Results from PMC4559854 (Proteins, 2009).

How the values were obtained:
PSA = PSA (Homo sapiens, UniProt P07288); assay: Substrate hydrolysis assay of Abz-peptide spots with purified PSA; format: biochemical; conditions: for hydrolysis / substrate activity (in words): compared with c0
chymotrypsin = conditions: selectivity for PSA; cited from earlier work

PSA, sequence (P07288 25-261): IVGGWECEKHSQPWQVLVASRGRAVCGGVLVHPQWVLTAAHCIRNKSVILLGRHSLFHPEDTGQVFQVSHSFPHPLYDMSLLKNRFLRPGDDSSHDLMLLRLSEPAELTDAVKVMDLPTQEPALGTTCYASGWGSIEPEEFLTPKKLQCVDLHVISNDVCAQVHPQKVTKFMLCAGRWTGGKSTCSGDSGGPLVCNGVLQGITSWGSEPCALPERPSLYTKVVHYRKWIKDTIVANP

Substance: GSAKLQ [c7]
- hydrolysis / substrate activity (in words) (PSA): high activity for PSA hydrolysis
- increase in the hydrolysis rate compared to c0 (PSA; versus c0): 2 fold

Substance: GSSKPQ [c4]
- hydrolysis / substrate activity (in words) (PSA): almost complete loss of hydrolysis activity

Substance: HSSKLQ
- hydrolysis by chymotrypsin (chymotrypsin): no detectable hydrolysis

Substance: GSSKYQ [c3]
- hydrolysis / substrate activity (in words) (PSA): high substrate activity
